For eight molecules, inhibition and IC50 results are on record in ChEMBL document CHEMBL1133811, “Small molecule/nucleic acid affinity chromatography: application for the identification of telomerase inhibitors which target its key RNA/DNA heteroduplex” (Bioorg Med Chem Lett, 2001).

Test [1] deals with T1, Telomerase reverse transcriptase (Homo sapiens, UniProt O14746). As to the kind of experiment: Inhibitory activity against telomerase at 50 uM concentration (Compound released from underivatized resin.
T1 sequence (O14746 whole entry): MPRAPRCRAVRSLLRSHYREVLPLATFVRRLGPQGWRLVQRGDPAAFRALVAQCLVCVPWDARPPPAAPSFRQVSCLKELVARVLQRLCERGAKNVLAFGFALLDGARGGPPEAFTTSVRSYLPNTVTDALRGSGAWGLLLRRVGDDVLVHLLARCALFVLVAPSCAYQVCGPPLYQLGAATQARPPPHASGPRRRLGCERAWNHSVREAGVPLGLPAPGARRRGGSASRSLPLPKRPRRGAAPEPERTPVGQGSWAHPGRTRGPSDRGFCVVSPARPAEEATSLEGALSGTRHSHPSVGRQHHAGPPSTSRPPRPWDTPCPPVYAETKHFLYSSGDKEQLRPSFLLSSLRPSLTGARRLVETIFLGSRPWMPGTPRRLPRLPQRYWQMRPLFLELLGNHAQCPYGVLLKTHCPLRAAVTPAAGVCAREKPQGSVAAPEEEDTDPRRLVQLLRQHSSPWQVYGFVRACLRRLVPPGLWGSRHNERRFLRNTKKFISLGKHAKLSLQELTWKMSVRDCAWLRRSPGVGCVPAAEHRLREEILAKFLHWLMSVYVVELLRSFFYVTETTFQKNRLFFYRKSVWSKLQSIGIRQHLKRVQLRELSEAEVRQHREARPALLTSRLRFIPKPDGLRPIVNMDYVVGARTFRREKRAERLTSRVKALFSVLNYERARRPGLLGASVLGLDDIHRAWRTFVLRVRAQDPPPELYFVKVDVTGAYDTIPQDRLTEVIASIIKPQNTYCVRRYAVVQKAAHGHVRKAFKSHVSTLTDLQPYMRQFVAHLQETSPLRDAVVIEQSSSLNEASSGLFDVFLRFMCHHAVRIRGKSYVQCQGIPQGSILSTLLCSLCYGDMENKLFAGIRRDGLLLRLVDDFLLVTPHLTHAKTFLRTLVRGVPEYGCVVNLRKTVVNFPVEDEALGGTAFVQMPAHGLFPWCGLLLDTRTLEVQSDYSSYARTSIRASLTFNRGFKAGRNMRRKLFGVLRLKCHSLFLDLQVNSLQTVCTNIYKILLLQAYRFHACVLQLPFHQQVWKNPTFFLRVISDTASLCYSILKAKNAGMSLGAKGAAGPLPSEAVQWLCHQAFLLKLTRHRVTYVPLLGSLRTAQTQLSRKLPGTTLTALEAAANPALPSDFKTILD
In test [2] the target is T1, Telomerase reverse transcriptase. The test is described as follows: Inhibitory activity against telomerase at 50 uM concentration (Compound released from RNA/DNA heteroduplex derivatized resin [sequence (TTAGGG)3).
For test [3] the target is unchanged. As to the kind of experiment: Inhibitory activity against telomerase at 50 uM concentration (Compound released from DNA/DNA heteroduplex derivatized resin [sequence (TTAGGG)3).
The target is the same in test [4]. As to the kind of experiment: Inhibitory activity against telomerase (Compound released from RNA/DNA heteroduplex derivatized resin [sequence (TTAGGG)3).
For test [5] the target is unchanged. As to the kind of experiment: Inhibitory activity against telomerase (Compound released from underivatized resin.
The target is the same in test [6]. As to the kind of experiment: Inhibitory activity against telomerase (Compound released from DNA/DNA heteroduplex derivatized resin [sequence (TTAGGG)3).

Numbered stars: 1 amine (or outer) side, 2 acyl side, 3 side chain; on linkers, the order of the positions; unused ones are H or OH. Bridge positions count the residues as written; N and C are the ends. Square brackets hold non-standard residues; d marks the D form. Peptide text beside a SMILES is read from it. I, II: the chains in the order shown. Actinocin(9to1) = Cc1c2oc3c(C)ccc(C(=O)[*:1])c3nc-2c(C(=O)[*:2])c(N)c1=O; NMeV = CN[C@H](C(=O)O)C(C)C; Sar = CNCC(=O)O Some results are limits rather than exact numbers.

What is called inhibition is the share of the control response that was lost under treatment. Consider `COc1cccc2c1C(=O)c1c(O)c3c(c(O)c1C2=O)C[C@@](O)(C(C)=O)C[C@@H]3O[C@H]1C[C@H](N)[C@H](O)[C@H](C)O1`, for which the inhibition in test [1], in test [2] and in test [3] was below 50% each time.
On to `Cc1c2oc3c(C)ccc(C(=O)N[C@@H]4C(=O)N[C@H](C(C)C)C(=O)N5CCC[C@H]5C(=O)N(C)CC(=O)N(C)[C@@H](C(C)C)C(=O)O[C@@H]4C)c3nc-2c(C(=O)N[C@@H]2C(=O)N[C@H](C(C)C)C(=O)N3CCC[C@H]3C(=O)N(C)CC(=O)N(C)[C@@H](C(C)C)C(=O)O[C@@H]2C)c(N)c1=O` (I: T[dV]P[Sar][NMeV] / II: T[dV]P[Sar][NMeV]; ester I:1-I:C, II:1-II:C; linker I:N-II:N via Actinocin(9to1)), for which the inhibition in test [1], in test [2] and in test [3] was below 50% in each case.
Usually IC50 stands for the concentration needed to halve the response being measured. With `CCOc1ccc2nc3cc(N)ccc3c(N)c2c1` [ETHACRIDINE], the IC50 in test [4], in test [5] and in test [6] was 8.2 µM each time.
Turning to `COc1cccc2c1C(=O)c1c(O)c3c(c(O)c1C2=O)C[C@@](O)(C(=O)CO)C[C@@H]3O[C@H]1C[C@H](N)[C@H](O)[C@H](C)O1`, the inhibition in test [1], in test [2] and in test [3] was below 50% throughout.
Take `Cc1c2oc3c(C)c(N)cc(C(=O)N[C@@H]4C(=O)N[C@H](C(C)C)C(=O)N5CCC[C@H]5C(=O)N(C)CC(=O)N(C)[C@@H](C(C)C)C(=O)O[C@@H]4C)c3nc-2c(C(=O)N[C@@H]2C(=O)N[C@H](C(C)C)C(=O)N3CCC[C@H]3C(=O)N(C)CC(=O)N(C)[C@@H](C(C)C)C(=O)O[C@@H]2C)c(N)c1=O`: the inhibition in test [1], in test [2] and in test [3] was below 50% throughout.
For the molecule `CC[n+]1c(-c2ccccc2)c2cc(N)ccc2c2ccc(N)cc21` [HOMIDIUM BROMIDE], the IC50 in test [4], in test [5] and in test [6] was 3.3 µM each time.
In the case of `CN(C)c1ccc2cc3ccc(N(C)C)cc3nc2c1` [ACRIDINE ORANGE], the IC50 in test [4], in test [5] and in test [6] was 12.2 µM throughout.
As to `Cc1cc2cc3cc(C)c(N)cc3nc2cc1N`, the IC50 in test [4], in test [5] and in test [6] was 21.7 µM throughout.
